According to patent US9688710B2, “Inhibitors of sodium glucose cotransporter 1” (LEXICON PHARMACEUTICALS, INC., priority 2012, dated 2017):

How the values were obtained:
[1] = target: Human sodium/glucose co-transporter type 1 (SGLT1) (Homo sapiens (Human), UniProt P13866); assay: In vitro human SGLT1 inhibition assay (14C-AMG uptake); type: cell-based; conditions: HEK293 cells expressing human HA-SGLT1, 14C-AMG uptake
How it was run: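 Uptake of 14C-AMG (100 nCi) was measured by scintillation counting after 1–2 h at 37 °C, 5% CO2, with or without compound. The buffer was pH 7.3 with 140 mM NaCl, 1 mM CaCl2, 1 mM MgCl2 and 1 mg/mL BSA. Cells were a stable HEK293 line carrying HA-SGLT1 (human), plated overnight at 30,000 per well.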

[2] = target: Human sodium/glucose co-transporter type 2 (SGLT2) (Homo sapiens (Human), UniProt P31639); assay: In vitro human SGLT2 inhibition assay (14C-AMG uptake); type: cell-based; conditions: HEK293 cells expressing human HA-SGLT2, 14C-AMG uptake
How it was run: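 Uptake of 14C-AMG (100 nCi) was followed in a stable HEK293 HA-SGLT2 line over 1-2 h at 37 °C with or without compound. Buffer: 140 mM NaCl, 10 mM HEPES, 5 mM Tris, 1 mg/mL BSA, pH 7.3. Readout was scintillation counting after washing.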

Human sodium/glucose co-transporter type 1 (SGLT1), sequence (P13866 whole entry): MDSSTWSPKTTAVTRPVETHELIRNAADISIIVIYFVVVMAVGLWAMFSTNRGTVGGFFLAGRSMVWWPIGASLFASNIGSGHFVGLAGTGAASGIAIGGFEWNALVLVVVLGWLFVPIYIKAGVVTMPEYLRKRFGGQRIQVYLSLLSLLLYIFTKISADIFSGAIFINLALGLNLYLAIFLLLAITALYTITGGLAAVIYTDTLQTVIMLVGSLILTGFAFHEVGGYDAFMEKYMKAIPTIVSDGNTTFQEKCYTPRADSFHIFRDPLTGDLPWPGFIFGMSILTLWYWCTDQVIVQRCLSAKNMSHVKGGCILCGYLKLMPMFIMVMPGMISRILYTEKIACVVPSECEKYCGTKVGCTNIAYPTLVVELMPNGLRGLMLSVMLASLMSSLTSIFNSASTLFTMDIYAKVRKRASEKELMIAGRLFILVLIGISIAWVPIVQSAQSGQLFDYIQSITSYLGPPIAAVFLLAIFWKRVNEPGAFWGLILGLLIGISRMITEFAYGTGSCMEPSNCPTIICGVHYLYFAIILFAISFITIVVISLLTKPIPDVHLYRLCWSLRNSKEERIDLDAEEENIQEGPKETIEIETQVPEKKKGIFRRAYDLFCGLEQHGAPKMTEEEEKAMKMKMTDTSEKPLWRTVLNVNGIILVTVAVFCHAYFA
Human sodium/glucose co-transporter type 2 (SGLT2), sequence (P31639 whole entry): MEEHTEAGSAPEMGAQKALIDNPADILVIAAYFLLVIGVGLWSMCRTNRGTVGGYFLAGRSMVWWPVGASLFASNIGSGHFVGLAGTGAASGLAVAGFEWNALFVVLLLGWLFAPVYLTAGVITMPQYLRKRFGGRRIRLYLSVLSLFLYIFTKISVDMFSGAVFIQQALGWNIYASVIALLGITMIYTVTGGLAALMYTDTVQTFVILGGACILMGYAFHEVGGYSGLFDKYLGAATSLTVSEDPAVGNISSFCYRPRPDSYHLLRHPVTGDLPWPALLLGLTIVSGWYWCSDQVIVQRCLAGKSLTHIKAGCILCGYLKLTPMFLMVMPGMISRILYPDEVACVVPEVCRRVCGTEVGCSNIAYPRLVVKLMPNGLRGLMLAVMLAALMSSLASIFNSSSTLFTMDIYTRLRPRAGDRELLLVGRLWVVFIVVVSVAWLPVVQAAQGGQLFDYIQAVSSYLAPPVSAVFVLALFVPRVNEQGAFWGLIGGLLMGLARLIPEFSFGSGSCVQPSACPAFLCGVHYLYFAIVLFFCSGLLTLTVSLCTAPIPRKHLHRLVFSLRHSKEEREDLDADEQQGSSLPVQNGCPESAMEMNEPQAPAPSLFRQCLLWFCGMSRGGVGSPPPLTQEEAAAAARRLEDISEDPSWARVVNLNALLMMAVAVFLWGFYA

Row | SMILES | IC50 [1] [nM] | IC50 [2] [nM]
1 | CS[C@H]1O[C@@H](c2ccc(Cl)c(Cc3ccc(OCCCC(=O)N(C)C(C)(C)CO)cc3)c2)[C@H](O)[C@@H](O)[C@@H]1O [4-(4-(2-chloro-5-((2S,3R,4R,5S,6R)-3,4,5-trihydroxy-6-(methylthio)tetrahydro-2H-pyran-2-yl)benzyl)phenoxy)-N-(1-hydroxy-2-methylpropan-2-yl)-N-methylbutanamide] | < 100 | < 10
2 | CS[C@H]1O[C@@H](c2ccc(Cl)c(Cc3ccc(OCCCC(=O)NC(CO)(CO)CO)cc3)c2)[C@H](O)[C@@H](O)[C@@H]1O [4-(4-(2-chloro-5-((2S,3R,4R,5S,6R)-3,4,5-trihydroxy-6-(methylthio)tetrahydro-2H-pyran-2-yl)benzyl)phenoxy)-N-(1,3-dihydroxy-2-(hydroxymethyl)propan-2-yl)butanamide] | < 100 | < 10
3 | CS[C@H]1O[C@@H](c2ccc(C)c(Cc3ccc(OCCCC(=O)NC(C)(C)C(=O)N(C)CCN(C)C)cc3)c2)[C@H](O)[C@@H](O)[C@@H]1O [N-(1-((2-(dimethylamino)ethyl)(methyl)amino)-2-methyl-1-oxopropan-2-yl)-4-(4-(2-methyl-5-((2S,3R,4R,5S,6R)-3,4,5-trihydroxy-6-(methylthio)tetrahydro-2H-pyran-2-yl)benzyl)phenoxy)butanamide] | < 100 | < 10
4 | CS[C@H]1O[C@@H](c2ccc(C)c(Cc3ccc(OCCCC(=O)NC(C)(C)C(=O)N4CCN(C)CC4)cc3)c2)[C@H](O)[C@@H](O)[C@@H]1O [N-(2-methyl-1-(4-methylpiperazin-1-yl)-1-oxopropan-2-yl)-4-(4-(2-methyl-5-((2S,3R,4R,5S,6R)-3,4,5-trihydroxy-6-(methylthio)tetrahydro-2H-pyran-2-yl)benzyl)phenoxy)butanamide] | < 10 | < 10
5 | CS[C@H]1O[C@@H](c2ccc(C)c(Cc3ccc(CCCC(=O)NCC(C)(C)C(=O)NC4CCNCC4)cc3)c2)[C@H](O)[C@@H](O)[C@@H]1O [N-(2,2-dimethyl-3-oxo-3-(piperidin-4-ylamino)propyl)-4-(4-(2-methyl-5-((2S,3R,4R,5S,6R)-3,4,5-trihydroxy-6-(methylthio)tetrahydro-2H-pyran-2-yl)benzyl)phenyl)butanamide] | < 100 | < 10
6 | CS[C@H]1O[C@@H](c2ccc(Cl)c(Cc3ccc(OCC(=O)O)cc3)c2)[C@H](O)[C@@H](O)[C@@H]1O [2-(4-(2-chloro-5-((2S,3R,4R,5S,6R)-3,4,5-trihydroxy-6-(methylthio)tetrahydro-2H-pyran-2-yl)benzyl)phenoxy)acetic acid] | < 1000 | < 100
7 | CS[C@H]1O[C@@H](c2ccc(Cl)c(Cc3ccc(OCCCNC(=O)C(C)(C)CO)cc3)c2)[C@H](O)[C@@H](O)[C@@H]1O [N-(3-(4-(2-chloro-5-((2S,3R,4R,5S,6R)-3,4,5-trihydroxy-6-(methylthio)tetrahydro-2H-pyran-2-yl)benzyl)phenoxy)propyl)-3-hydroxy-2,2-dimethylpropanamide] | < 100 | < 10
8 | CS[C@H]1O[C@@H](c2ccc(C)c(Cc3ccc(CCCCNCC(O)CO)cc3)c2)[C@H](O)[C@@H](O)[C@@H]1O (stereo partly drawn) [(2S,3R,4R,5S,6R)-2-(3-(4-(4-((2,3-dihydroxypropyl)amino)butyl)benzyl)-4-methylphenyl)-6-(methylthio)tetrahydro-2H-pyran-3,4,5-triol] | < 100 | < 10
9 | CS[C@H]1O[C@@H](c2ccc(C)c(Cc3ccc(CCCCCNC(=O)NC(C)(C)C(N)=O)cc3)c2)[C@H](O)[C@@H](O)[C@@H]1O [2-methyl-2-(3-(5-(4-(2-methyl-5-((2S,3R,4R,5S,6R)-3,4,5-trihydroxy-6-(methylthio)tetrahydro-2H-pyran-2-yl)benzyl)phenyl)pentyl)ureido)propanamide] | < 100 | < 10
10 | CS[C@H]1O[C@@H](c2ccc(C)c(Cc3ccc(OCCCC(=O)NCC(N)=O)cc3)c2)[C@H](O)[C@@H](O)[C@@H]1O [N-(2-amino-2-oxoethyl)-4-(4-(2-methyl-5-((2S,3R,4R,5S,6R)-3,4,5-trihydroxy-6-(methylthio)tetrahydro-2H-pyran-2-yl)benzyl)phenoxy)butanamide] | < 100 | < 10
11 | CS[C@H]1O[C@@H](c2ccc(C)c(Cc3ccc(CCCC(=O)NCCN(CCNC(=O)CCCc4ccc(Cc5cc([C@@H]6O[C@H](SC)[C@@H](O)[C@H](O)[C@H]6O)ccc5C)cc4)CCNC(=O)CCCc4ccc(Cc5cc([C@@H]6O[C@H](SC)[C@@H](O)[C@H](O)[C@H]6O)ccc5C)cc4)cc3)c2)[C@H](O)[C@@H](O)[C@@H]1O [(S,R,S,R,R,S,R,S,R,R)-N,N′,N″-(nitrilotris(ethane-2,1-diyl))tris(4-(4-(2-methyl-5-((2S,3R,4R,5S,6R)-3,4,5-trihydroxy-6-(methylthio)tetrahydro-2H-pyran-2-yl)benzyl)phenyl)butanamide)] | < 100 | < 10
12 | CS[C@H]1O[C@@H](c2ccc(C)c(Cc3ccc(CCCCCC(=O)NC(C)(C)C(N)=O)cc3)c2)[C@H](O)[C@@H](O)[C@@H]1O [N-(1-amino-2-methyl-1-oxopropan-2-yl)-6-(4-(2-methyl-5-((2S,3R,4R,5S,6R)-3,4,5-trihydroxy-6-(methylthio)tetrahydro-2H-pyran-2-yl)benzyl)phenyl)hexanamide] | < 100 | < 10
13 | CS[C@H]1O[C@@H](c2ccc(C)c(Cc3ccc(CCCCC(=O)N4CCN(C)CC4)cc3)c2)[C@H](O)[C@@H](O)[C@@H]1O [5-(4-(2-methyl-5-((2S,3R,4R,5S,6R)-3,4,5-trihydroxy-6-(methylthio)tetrahydro-2H-pyran-2-yl)benzyl)phenyl)-1-(4-methylpiperazin-1-yl)pentan-1-one] | < 100 | < 10
14 | CS[C@H]1O[C@@H](c2ccc(C)c(Cc3ccc(CCCCCN)cc3)c2)[C@H](O)[C@@H](O)[C@@H]1O [(2S,3R,4R,5S,6R)-2-(3-(4-(5-aminopentyl)benzyl)-4-methylphenyl)-6-(methylthio)tetrahydro-2H-pyran-3,4,5-triol] | < 100 | < 10
15 | CS[C@H]1O[C@@H](c2ccc(C)c(Cc3ccc(OCCNC(=N)N)cc3)c2)[C@H](O)[C@@H](O)[C@@H]1O [1-(2-(4-(2-methyl-5-((2S,3R,4R,5S,6R)-3,4,5-trihydroxy-6-(methylthio)tetrahydro-2H-pyran-2-yl)benzyl)phenoxy)ethyl)guanidine] | < 10 | < 10

More lines, now with the values ahead:

Row | IC50 [1] [nM] | IC50 [2] [nM] | SMILES
16 | < 10 | < 10 | CS[C@H]1O[C@@H](c2ccc(C)c(Cc3ccc(CCCC(=O)NC(C)(C)C(=O)N4CCN(C(=O)OC(C)(C)C)CC4)cc3)c2)[C@H](O)[C@@H](O)[C@@H]1O [tert-butyl 4-(2-methyl-2-(4-(4-(2-methyl-5-((2S,3R,4R,5S,6R)-3,4,5-trihydroxy-6-(methylthio)tetrahydro-2H-pyran-2-yl)benzyl)phenyl)butanamido)propanoyl)piperazine-1-carboxylate]
17 | < 10 | < 10 | CCNC(=O)CCCOc1ccc(Cc2cc([C@@H]3O[C@H](SC)[C@@H](O)[C@H](O)[C@H]3O)ccc2C)cc1 [N-ethyl-4-(4-(2-methyl-5-((2S,3R,4R,5S,6R)-3,4,5-trihydroxy-6-(methylthio)tetrahydro-2H-pyran-2-yl)benzyl)phenoxy)butanamide]
18 | < 10 | < 10 | CS[C@H]1O[C@@H](c2ccc(C)c(Cc3ccc(OCCNCC(C)(C)C(N)=O)cc3)c2)[C@H](O)[C@@H](O)[C@@H]1O [2,2-dimethyl-3-((2-(4-(2-methyl-5-((2S,3R,4R,5S,6R)-3,4,5-trihydroxy-6-(methylthio)tetrahydro-2H-pyran-2-yl)benzyl)phenoxy)ethyl)amino)propanamide]
19 | < 10 | < 10 | CS[C@H]1O[C@@H](c2ccc(C)c(Cc3ccc(CCCC(=O)NC(C)(C)C(=O)N(C)CCN(C)C)cc3)c2)[C@H](O)[C@@H](O)[C@@H]1O [N-(1-((2-(dimethylamino)ethyl)(methyl)amino)-2-methyl-1-oxopropan-2-yl)-4-(4-(2-methyl-5-((2S,3R,4R,5S,6R)-3,4,5-trihydroxy-6-(methylthio)tetrahydro-2H-pyran-2-yl)benzyl)phenyl)butanamide]
20 | < 10 | < 10 | CS[C@H]1O[C@@H](c2ccc(C)c(Cc3ccc(CCCC(=O)NCC(=O)N4CCN(C)CC4)cc3)c2)[C@H](O)[C@@H](O)[C@@H]1O [4-(4-(2-methyl-5-((2S,3R,4R,5S,6R)-3,4,5-trihydroxy-6-(methylthio)tetrahydro-2H-pyran-2-yl)benzyl)phenyl)-N-(2-(4-methylpiperazin-1-yl)-2-oxoethyl)butanamide]
21 | < 10 | < 10 | CCN(CC)CCCCc1ccc(Cc2cc([C@@H]3O[C@H](SC)[C@@H](O)[C@H](O)[C@H]3O)ccc2C)cc1 [(2S,3R,4R,5S,6R)-2-(3-(4-(4-(diethylamino)butyl)benzyl)-4-methylphenyl)-6-(methylthio)tetrahydro-2H-pyran-3,4,5-triol]
22 | < 10 | < 10 | CS[C@H]1O[C@@H](c2ccc(C)c(Cc3ccc(CCCC(=O)NC(C)(C)C(=O)N4CCN(C)CC4)cc3)c2)[C@H](O)[C@@H](O)[C@@H]1O [N-(2-methyl-1-(4-methylpiperazin-1-yl)-1-oxopropan-2-yl)-4-(4-(2-methyl-5-((2S,3R,4R,5S,6R)-3,4,5-trihydroxy-6-(methylthio)tetrahydro-2H-pyran-2-yl)benzyl)phenyl)butanamide]
